According to patent US10434076B2, “Use of 2,5-dihydroxybenzene derivatives for treating dermatitis” (AmDerma Pharmaceuticals, LLC, priority 2006, dated 2019):
Entries after “also recorded” stand apart in the source; their conditions may differ.

Key:
[1] = molecular target: Fibroblast Growth Factor-1 (FGF-1) (Homo sapiens, UniProt P05230); experiment: Structural interaction with FGF-1 (diffraction of complex crystals); type: binding; conditions: electron density
Experimental: As of the diffraction from complex crystals of FGF-1: 2-acetoxy-5-hydroxybenzenesulfonic acid, FGF-1; 5-acetoxy-2-hydroxybenzenesulfonic acid and FGF-1: 2,5-diacetoxybenzenesulfonic acid, the complex structures were calculated and represented. In FIGS. 10, 11 and 12, representing the surface of the protein coloured according to its electrostatic potential (light grey: negative charge, dark grey: positive charge, white: areas with no charge), the interaction form of the 2-acetoxy-5-hydroxybenzenesulfonic acid, 5-acetoxy-2-hydroxybenzenesulfonic acid and 2,5-diacetoxybenzenesulfonic acid, respectively, with the FGF-1 may be observed.

[2] = test system: dermatitis induced by the application of benzalkonium chloride on the rat ears; experiment: Benzalkonium chloride induced dermatitis on rat ears, Evans blue dye extravasation; type: in vivo; conditions: for percentage of the area stained in blue compared to the total area of the ear (dermatitis extent): treated vs untreated ear
Experimental: Dermatitis was induced by the application of benzalkonium chloride, 5% solution (w/v) (1:5 olive oil:acetone) on the entire extent of the back part of the car ([…]) in anesthetized rats. Dermatitis was induced in both ears. In the assay of 2,5-dihydroxybenzenesulfonate (DHBS), a cream containing 5% of DHBS (w/w) was applied topically only on the back part of the right ear, 30 minutes after the application of benzalkonium chloride. Fifteen minutes later, 0.5% by weight of Evans blue dye solution (400 μL per animal) was injected into the jugular vein. […] Therefore, it can be stated that topical application of 5% DHBS reduced the dermatitis extent.
This observation was confirmed upon quantification of dermatitis extent based on the area of the ear stained in blue with respect to the total area of the ear. Identically obtained photographs of the extended ears were processed in order to determine the stained area and the total area of the ear using a computer program to analyze images (Motic Image). The stained area of each ear was related to the total area to obtain the percentage of the ear affected by the dermatitis. […] 24 hours after dermatitis induction (FIG. 2B), these values were very similar.
Using the same procedure as in the former example, dermatitis was induced by the application of benzalkonium chloride, 5% solution (w/v) (1:5 olive oil:acetone) on the entire extent of the back part of the ear (40 μL/ear) in anesthetized rats. Dermatitis was induced in both ears. A cream containing 5% (w/v) of either 2-acetoxy-5-hydroxybenzenesulfonate (2A-5HBS) or 5-acetoxy-2-hydroxybenzenesulfonate (5A-2HBS) was applied topically only on the back part of the right ear, 30 minutes after the application of benzalkonium chloride. Fifteen minutes later, 0.5% (w/v) of Evans blue dye solution (400 μL per animal) was injected into the jugular vein. […] Therefore, it can be stated that topical application of 5% 2A-5HBS and 5% 5A-2HBS reduced the dermatitis extent.
This observation was confirmed upon quantification of dermatitis extent based on the area of the ear stained in blue with respect to the total area of the ear. Identically obtained photographs of the extended ears were processed in order to determine the stained area and the total area of the ear using a computer program to analyze images (Motic Image). The stained area of each car was related to the total area to obtain the percentage of the ear affected by the dermatitis.

[3] = test system: dermatitis induced by benzalkonium chloride on the ear of the rat; experiment: Benzalkonium chloride induced dermatitis on rat ears, erythema and histological study; type: in vivo
Experimental: Using the same model, dermatitis was induced on both ears of two rats, following the same process described above. In this case, 30 minutes after the application of benzalkonium chloride, a rat was treated in both ears with a glycerol solution (FIG. 3A), while the other one was treated in both ears with a glycerol solution containing 2.5% (w/v) of 2,5-diacetoxybenzenesulfonate (DABS) (FIG. 3B).

[4] = test system: myeloperoxidase (MPO) activity; experiment: Myeloperoxidase (MPO) activity in the ear after benzalkonium chloride induced dermatitis; type: in vivo, rat; conditions: for increase in MPO activity in the ear caused by dermatitis: 24 hours after induction
Experimental: In this same model (Hyun E et al. Br J Pharmacol, 2004), dermatitis induction has been associated to an increase in the myeloperoxidase (MPO) activity in the ear, as a marker of leukocyte infiltration in the tissue affected with dermatitis. Based on these evidences, the effect of hydroxybenzene derivatives (i the activity of the MPO in the model described in this example was established. The MPO activity was determined in the ears of control rats (without dermatitis) and in ears on which dermatitis had been induced with benzalkonium chloride and had been treated with vehicle (anhydrous glycerol), 5% DHBS cream or DABS 2.5% solution in glycerol. The ears were frozen in liquid nitrogen 24 hours after the induction of dermatitis and were kept at −80° C. until determination of MPO activity. To determine the MPO activity, the frozen ears were homogenized in phosphate buffer with 0.5% of hexadecyltrimethylammonium bromide. After several freezing/thawing/sonication cycles, the samples were centrifuged at 13,000×g during 20 minutes at 4° C. H2O2 and O-dianisidine were added into the supernatants and the absorbance was measured at 460 nm in a spectrophotometer 1 hour after incubation at room temperature. The MPO activity is expressed as absorbance units per mg of tissue.

[5] = topical 5% (w/v) monoester on right ear vs untreated left ear, 24 hours after induction
[6] = topical 5% monoester solution, 24 hours after induction
[7] = topical 2.5% DABS in glycerol vs vehicle, tissues fixed 24 hours after induction

Chain of Fibroblast Growth Factor-1 (FGF-1) (P05230 whole entry, species assumed): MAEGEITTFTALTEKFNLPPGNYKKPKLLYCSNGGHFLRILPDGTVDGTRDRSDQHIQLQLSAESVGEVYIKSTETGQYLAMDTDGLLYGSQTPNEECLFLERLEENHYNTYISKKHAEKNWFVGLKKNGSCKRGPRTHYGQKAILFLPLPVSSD

Compound	acetoxyl groups kept when bound to FGF-1 [1]	location of the compound bound to FGF-1 [1]	blue stain extent (Evans blue dye extravasation), photographs [2, 5]	percentage of the area stained in blue compared to the total area of the ear (dermatitis extent) [2, 6]	erythema caused by the dermatitis ([3]; topical 2.5% (w/v) DABS in glycerol vs glycerol vehicle)	granulocytes adhered to the capillary endothelial cells (histological study) [3, 7]	leukocyte infiltration (histological study) [3, 7]	tissular edema (histological study) [3, 7]	efficacy on MPO activity relative to 5% DHBS ([4]; 2.5% DABS (half the amount of active principle) compared with 5% DHBS)	increase in MPO activity in the ear caused by dermatitis ([4]; topical 2.5% DABS solution in glycerol vs vehicle)	blue stain extent (Evans blue dye extravasation), photographs ([2]; topical cream 5% DHBS on right ear vs untreated left ear, 4 hours after dermatitis induction)	percentage of the area stained in blue compared to the total area of the ear (dermatitis extent) ([2]; topical cream 5% DHBS, 4 hours after induction)	increase in MPO activity in the ear caused by dermatitis ([4]; topical 5% DHBS cream vs vehicle)
CC(=O)Oc1ccc(O)cc1S(=O)(=O)O [2A-5HBS, 2-acetoxy-5-hydroxybenzenesulfonic acid]	keep the acetoxyl groups in positions 2, 5 and, 2 and 5, respectively	located at a site very close to the site that, as described, is occupied by the 2,5-dihydroxybenzenesulfonic acid	clearly smaller blue stain; also recorded: remarkably reduced dye extravasation	significantly reduced the percentage of the area stained in blue; also recorded: significantly reduced dermatitis extent	–	–	–	–	–	–	–	–	–
CC(=O)Oc1ccc(O)c(S(=O)(=O)O)c1 [5A-2HBS, 5-acetoxy-2-hydroxybenzenesulfonic acid]	keep the acetoxyl groups in positions 2, 5 and, 2 and 5, respectively	located at a site very close to the site that, as described, is occupied by the 2,5-dihydroxybenzenesulfonic acid	notably reduced; also recorded: remarkably reduced dye extravasation	significantly reduced the percentage of the area stained in blue	–	–	–	–	–	–	–	–	–
CC(=O)Oc1ccc(OC(C)=O)c(S(=O)(=O)O)c1 [DABS, 2,5-diacetoxybenzenesulfonic acid]	keep the acetoxyl groups in positions 2, 5 and, 2 and 5, respectively	located at a site very close to the site that, as described, is occupied by the 2,5-dihydroxybenzenesulfonic acid	–	–	reduced benzalkonium chloride induced dermatitis; also recorded: milder	significant reduction; also recorded: not observed	reduces the edema and the leukocyte infiltration; also recorded: noticeably milder	reduces the edema; also recorded: not observed	slightly higher	significantly reduces	–	–	–
O=S(=O)(O)c1cc(O)ccc1O [DHBS, 2,5-dihydroxybenzenesulfonic acid, reference compound]	–	–	–	–	–	–	–	–	–	–	clearly smaller blue stain; also recorded: remarkably reduced dye extravasation	significantly reduced the percentage of the area stained in blue; also recorded: significantly reduced dermatitis extent	significantly reduced
